{"source": "paper PMC5487351", "about": "“Galactosylsphingamides: new α-GalCer analogues to probe the F’-pocket of CD1d” (Scientific Reports, 2017)", "biological_target": "T1, mCD1d (mCD1-β2M) (Mus musculus, UniProt P11609)", "T1 construct": "gene Cd1d1; soluble CD1d ectodomain with beta2-microglobulin, insect cells; glycolipid-loaded; with Beta-2-microglobulin", "T1 sequence (P11609 19-297)": "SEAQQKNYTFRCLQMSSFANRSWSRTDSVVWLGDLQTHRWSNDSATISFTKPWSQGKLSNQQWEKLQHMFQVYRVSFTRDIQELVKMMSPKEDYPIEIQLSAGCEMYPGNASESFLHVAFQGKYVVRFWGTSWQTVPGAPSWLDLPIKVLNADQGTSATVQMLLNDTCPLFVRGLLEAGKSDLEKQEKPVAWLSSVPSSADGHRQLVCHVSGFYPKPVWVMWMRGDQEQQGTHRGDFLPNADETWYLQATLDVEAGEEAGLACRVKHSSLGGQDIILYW", "T1 sequence (P01887 21-119 partner)": "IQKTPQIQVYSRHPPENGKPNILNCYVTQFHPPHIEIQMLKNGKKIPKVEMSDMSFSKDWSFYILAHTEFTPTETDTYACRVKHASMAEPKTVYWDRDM", "experiment": "X-ray crystal structure, […] Å", "conditions": "CD1d binding groove (A' and F' pockets); spacer lipid in A' pocket"}
{"smiles": "CCCCCCCC(=O)N[C@@H](CO[C@H]1O[C@H](CO)[C@H](O)[C@H](O)[C@H]1O)[C@H](O)[C@H](O)CCCC(=O)NCCCCCCc1ccccc1", "note": "[5d, (5R,6S,7S)-5,6-dihydroxy-8-O-(α-D-galactopyranosyl)-7-octanamido-N-(6-phenylhexyl)octanamide]", "values": [{"measurement": "X-ray crystal structure, 1.75 Å", "value": "we determined the crystal structure of the CD1d/5d-complex"}]}
